# Results from patent publication US7179825B2, “Retinoic acid mimetic anilides” (Janssen Pharmaceutica N.V., priority 1997, dated 2007).
# Key:
# [1] = tested on: metabolism of retinoic acid in human breast cancer cells; assay: Inhibition of retinoic acid (RA) metabolism (Example C.1); type: cell-based; settings: MCF-7 human breast cancer cells, 3H-RA as substrate, concentration needed to reduce the amount of metabolites to 50% of the control
# Outline: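 MCF-7 cells, pre-stimulated with RA the day before, incubated with ³H-RA substrate and test compound in 1% DMSO. Polar ³H-metabolites separated from unmetabolized RA and counted by scintillation. IC50 is the concentration cutting metabolite formation to 50% of control, with blank run alongside.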
# Ovariectomized rats = assay: Vaginal keratinization test on ovariectomized rats (Example C.2); type: in vivo; settings: estradiol undecylate induced keratinization, per os once daily on days 1-3, active dose = 50% of rats show complete suppression
# Outline: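 Ovariectomized rats given s.c. estradiol undecylate (100 μg per 100 g body weight in sesame oil), then oral compound once daily on days 1-3 (vehicle PEG 200). Vaginas assessed histologically one day after last dose; lowest active dose (mg/kg) is the dose giving complete keratinization suppression in 50% of rats.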
SMILES,IC50 [1] [nM],LAD (lowest active dose) (Ovariectomized rats) [mg/kg],IC50 ([1]; MCF7) [nM],"minimal effective dose (Ovariectomized rats; Rattus norvegicus, po, read-out: LAD (lowest active dose)) [mg/kg]"
CC(C)C(c1ccc(NC(=O)Nc2cccc(N)c2)cc1)n1ccnc1 (racemic) [Compound 727],1.64,>10.00,–,–
CC(C)C(c1ccc(NC(=O)Nc2cc(F)ccc2F)cc1)n1ccnc1 (racemic) [Compound 728],1.41,5.00,–,–
O=C(Nc1ccc(C(c2cccc(C(F)(F)F)c2)n2ccnc2)cc1)Nc1cccc(F)c1 (racemic) [Compound 729],> 100,2.50,–,–
CC(C)C(c1ccc(NC(=O)Nc2cccc(C(F)(F)F)c2)cc1)n1ccnc1 (racemic) [Compound 730],15.9,>10.00,–,–
CC(C)C(c1ccc(NC(=O)Nc2ccc(Cl)c(Cl)c2)cc1)n1ccnc1 (racemic) [Compound 732],19.3,>10.00,–,–
COc1cccc(NC(=O)Nc2ccc(C(C(C)C)n3ccnc3)cc2)c1 (racemic) [Compound 733],2.41,>10.00,–,–
CC(C)C(c1ccc(NC(=O)Nc2ccc(F)cc2F)cc1)n1ccnc1 (racemic) [Compound 734],2.25,10.00,–,–
O=C(Nc1ccc(C(c2ccccc2)n2ccnc2)cc1)Nc1cccc(F)c1 (racemic) [Compound 735],> 100,10.00,–,–
Cc1cccc(NC(=O)Nc2ccc(C(C(C)C)n3ccnc3)cc2)c1 (racemic) [Compound 736],7.45,>10.00,–,–
CC(C)C(c1ccc(NC(=O)Nc2cccc([N+](=O)[O-])c2)cc1)n1ccnc1 (racemic) [Compound 737],2.36,>10.00,–,–
CC(C)C(c1ccc(NC(=O)Nc2cccc(Cl)c2)cc1)n1ccnc1 (racemic) [Compound 738],2.03,10.00,–,–
CC(C)C(c1ccc(NC(=O)Nc2ccc(Cl)cc2)cc1)n1ccnc1 (racemic) [Compound 739],42.1,>10.00,–,–
"CC(C)C(c1ccc(NC(=O)Nc2ccc(F)cc2)cc1)n1ccnc1 (racemic) [Compound 740, (±)-N-(4-fluorophenyl)-N′-[4-[1-(1H-imidazol-1-yl)-2-methylpropyl]phenyl]urea]",–,–,1.29,20
CC(C)C(c1ccc(NC(=O)Nc2cccc(F)c2)cc1)n1ccnc1 (racemic) [Compound 741],1.44,10.00,–,–
CC(C)C(c1ccc(NC(=O)Nc2ccccc2)cc1)n1ccnc1 (racemic) [Compound 742],0.261,10.00,–,–
CCCCC(c1ccc(NC(=O)/C(C)=C/c2ccccc2)cc1)(C(C)C)n1ccnc1 (racemic) [Compound 761],> 100,>5.00,–,–
CCC(CC)C(O)(c1ccc(NC(C)=O)cc1)c1cncn1C (racemic) [Compound 772],0.146,>5.00,–,–
"CCC(CC)C(c1ccc(NC(=O)C(O)c2ccc(Cl)cc2)cc1)n1cncn1 (single isomer, unassigned) [Compound 21]",2.89,5.00,–,–
"CCOc1ccc(CCC(=O)Nc2ccc(C(C(CC)CC)n3ccnc3)cc2)cc1 (single isomer, unassigned) [Compound 61]",0.734,2.50,–,–
"CCC(CC)C(c1ccc(NC(=O)Cc2ccc(OC)c(C)c2)cc1)n1cncn1 (single isomer, unassigned) [Compound 85]",3.92,2.50,–,–
"CCC(CC)C(c1ccc(NC(=O)Cc2ccc(OC)c(C)c2)cc1)n1cncn1 (single isomer, unassigned) [Compound 86]",0.497,2.50,–,–
"COc1ccc(CC(=O)Nc2ccc(C(C(C)N(C)C)n3cncn3)cc2)cc1Cl (single isomer, unassigned) [Compound 288]",1.28,>2.50,–,–
"CC(C(c1ccc(NC(=O)Cc2ccc(O)c(Cl)c2)cc1)n1cncn1)N(C)C (single isomer, unassigned) [Compound 289]",0.507,>2.50,–,–
"Cc1cc(CC(=O)Nc2ccc(C(C(C)N(C)C)n3cncn3)cc2)cc(C)c1C (single isomer, unassigned) [Compound 290]",1.14,2.50,–,–

SMILES,IC50 [1] [nM],LAD (lowest active dose) (Ovariectomized rats) [mg/kg],IC50 ([1]; MCF7) [nM],"minimal effective dose (Ovariectomized rats; Rattus norvegicus, po, read-out: LAD (lowest active dose)) [mg/kg]"
"Cc1cc(CC(=O)Nc2ccc(C(C(C)N(C)C)n3cncn3)cc2)cc(C)c1C (single isomer, unassigned) [Compound 291]",4.23,>2.50,–,–
"COc1cc(CC(=O)Nc2ccc(C(C(C)N(C)C)n3cncn3)cc2)cc(OC)c1OC (single isomer, unassigned) [Compound 292]",0.137,>2.50,–,–
"CCOc1ccc(CC(=O)Nc2ccc(C(C(C)N(C)C)n3cncn3)cc2)cc1OCC (single isomer, unassigned) [Compound 293]",6.53,>2.50,–,–
"COc1cc(CC(=O)Nc2ccc(C(C(C)N(C)C)n3cncn3)cc2)ccc1Cl (single isomer, unassigned) [Compound 297]",0.786,>2.50,–,–
"CCOc1ccc(CC(=O)Nc2ccc(C(C(C)N(C)C)n3ccnc3)cc2)cc1OCC (single isomer, unassigned) [Compound 301]",6.05,>2.50,–,–
"Cc1ccc(CC(=O)Nc2ccc(C(C(C)N(C)C)n3ccnc3)cc2)cc1C (single isomer, unassigned) [Compound 306]",1.26,>2.50,–,–
"CC(C(c1ccc(NC(=O)Cc2ccc(O)c(Cl)c2)cc1)n1ccnc1)N(C)C (single isomer, unassigned) [Compound 307]",0.701,>2.50,–,–
"Cc1cc(CC(=O)Nc2ccc(C(C(C)N(C)C)n3ccnc3)cc2)cc(C)c1C (single isomer, unassigned) [Compound 309]",3.65,>2.50,–,–
"COc1cc(CC(=O)Nc2ccc(C(C(C)N(C)C)n3ccnc3)cc2)ccc1Cl (single isomer, unassigned) [Compound 311]",0.664,2.50,–,–
"COc1ccc(CC(=O)Nc2ccc(C(C(C)N(C)C)n3ccnc3)cc2)cc1C (single isomer, unassigned) [Compound 313]",0.02,2.50,–,–
"CC(C)Oc1ccc(CC(=O)Nc2ccc(C(C(C)N(C)C)n3ccnc3)cc2)cc1 (single isomer, unassigned) [Compound 316]",4.06,5.00,–,–
"CC(C(c1ccc(NC(=O)Cc2ccc3c(c2)OCO3)cc1)n1cncn1)N(C)C (single isomer, unassigned) [Compound 330]",1.82,2.50,–,–
"C/C(=C\c1ccccc1)C(=O)Nc1ccc(C(C(C)N(C)C)n2cncn2)cc1 (single isomer, unassigned) [Compound 332]",1.5,>2.50,–,–
"CC(C(c1ccc(NC(=O)Cc2ccc3c(c2)OCCO3)cc1)n1ccnc1)N(C)C (single isomer, unassigned) [Compound 339]",1.23,>2.50,–,–
"CCOc1ccc(CCC(=O)Nc2ccc(C(C(C)N(C)C)n3ccnc3)cc2)cc1 (single isomer, unassigned) [Compound 346]",2.04,>5.00,–,–
"COc1ccccc1OCC(=O)Nc1ccc(C(C(C)N(C)C)n2ccnc2)cc1 (single isomer, unassigned) [Compound 351]",5.69,>5.00,–,–
"CC(C(c1ccc(NC(=O)CN2CCN(C)CC2)cc1)n1ccnc1)N(C)C (single isomer, unassigned) [Compound 352]",0.257,>5.00,–,–
"CC(C(c1ccc(NC(=O)CN2CCN(C)CC2)cc1)n1ccnc1)N(C)C (single isomer, unassigned) [Compound 353]",1.97,>5.00,–,–
"CC(C(c1ccc(NC(=O)Cc2ccc(Cl)cc2)cc1)n1ccnc1)N1CCCCC1 (single isomer, unassigned) [Compound 366]",3.05,>10.00,–,–
"CC(C(c1ccc(NC(=O)Cc2ccc(Cl)cc2)cc1)n1ccnc1)N(C)C (single isomer, unassigned) [Compound 367]",1.25,2.50,–,–
"CC(C(c1ccc(NC(=O)Cc2ccc(Cl)cc2)cc1)n1ccnc1)N(C)C (single isomer, unassigned) [Compound 368]",0.583,2.50,–,–
"CC(Sc1ccccc1)C(c1ccc(NC(=O)Cc2ccc(Cl)cc2)cc1)n1ccnc1 (single isomer, unassigned) [Compound 369]",82.2,10.00,–,–
"CC(Oc1ccccc1)C(c1ccc(NC(=O)Cc2ccc(Cl)cc2)cc1)n1ccnc1 (single isomer, unassigned) [Compound 370]",83.4,>10.00,–,–
"CC(Sc1ccccc1)C(c1ccc(NC(=O)Cc2ccc(Cl)cc2)cc1)n1ccnc1 (single isomer, unassigned) [Compound 376]",< 0.1,2.50,–,–
